The nature of this assay: Cytotoxicity against NCI60 cells. The assay is classed as functional. The settings on record: Homo sapiens.

Values after ≈ are worked out from the molar mass of the structure shown.

`C/C=C\[C@H](C)[C@H]1O[C@@]1(C)[C@@H](O)[C@H]1COC(=O)[C@H](O)[C@@H](OC)[C@H](C)C(=O)[C@H](C)[C@@H](O)/C(C)=C/[C@H](C)C(=O)CC[C@@H](C)C1=O` displayed a GI50 of 0.09 ng/mL (≈ 0.000151 µM). As for `C/C=C\[C@H](C)[C@H]1OC1(C)[C@@H](O)[C@H]1COC(=O)[C@H](O)[C@@H](OC)[C@H](C)C(=O)[C@H](C)[C@@H](OC(C)=O)/C(C)=C/[C@H](C)C(=O)C[C@H](O)[C@@](O)(CO)C1=O` (single isomer, unassigned), the figure is 42 ng/mL (≈ 0.0613 µM).

By GI50 is commonly meant the concentration at which growth is held to half of that of the control.

The values above are taken from ChEMBL document CHEMBL1145414, “Candidaspongiolides, distinctive analogues of tedanolide from sponges of the genus Candidaspongia” (2007).
